Data from paper PMC4032193 (Journal of Medicinal Chemistry, 2014).

What follows are compounds tested on HepG2 (hepatocellular carcinoma) cell line. Settings: human.

| SMILES | SI HepG2/D6 | SI HepG2/TM91C235 | SI HepG2/W2 | IC50 |
| --- | --- | --- | --- | --- |
| CC(=O)O[C@H]1C[C@H]2[C@@H]([C@H](OC(C)=O)C[C@@H]3CC(NCCCNc4ccnc5cc(Cl)ccc45)CC[C@@]32C)[C@@H]2CC[C@H]([C@H](C)CCCNCCCNc3ccnc4cc(Cl)ccc34)[C@@]12C (mixture of isomers) [Compound 63] | 43/32/24 | 43/32/24 | 43/32/24 | – |
| CC(=O)O[C@@H]1CC[C@@]2(C)[C@@H](C1)C[C@@H](OC(C)=O)[C@@H]1[C@@H]2C[C@H](OC(C)=O)[C@]2(C)[C@@H]([C@H](C)CCCNCCCNc3ccnc4cc(Cl)ccc34)CC[C@@H]12 [Compound 13] | 104/101/67 | 104/101/67 | 104/101/67 | – |
| CC(=O)O[C@@H]1CC[C@@]2(C)[C@@H](C1)C[C@@H](OC(C)=O)[C@@H]1[C@@H]2C[C@H](OC(C)=O)[C@]2(C)[C@@H]([C@H](C)CCCNCCCCNc3ccnc4cc(Cl)ccc34)CC[C@@H]12 [Compound 14] | 107/55/47 | 107/55/47 | 107/55/47 | – |
| CC(=O)O[C@@H]1CC[C@@]2(C)[C@@H](C1)C[C@@H](OC(C)=O)[C@@H]1[C@@H]2C[C@H](OC(C)=O)[C@]2(C)[C@@H]([C@H](C)CCCNCCCCCCNc3ccnc4cc(Cl)ccc34)CC[C@@H]12 [Compound 15] | 47/29/25 | 47/29/25 | 47/29/25 | – |
| CC(=O)O[C@H]1C[C@H]2[C@@H]([C@H](OC(C)=O)C[C@@H]3C[C@H](O)CC[C@@]32C)[C@@H]2CC[C@H]([C@H](C)CCCNCCNc3ccnc4cc(Cl)ccc34)[C@@]12C [Compound 16, N-(3α-Hydroxy-7α,12α-diacetoxy-5β-cholan-24-yl)-N′-(7′-chloroquinolin-4′-yl)ethane-1,2-diamine] | 415/938/407 | 415/938/407 | 415/938/407 | – |
| CC(=O)O[C@H]1C[C@H]2[C@@H]([C@H](OC(C)=O)C[C@@H]3C[C@H](O)CC[C@@]32C)[C@@H]2CC[C@H]([C@H](C)CCCNCCCCNc3ccnc4cc(Cl)ccc34)[C@@]12C [Compound 18] | 47/30/28 | 47/30/28 | 47/30/28 | – |
| CC(=O)O[C@H]1C[C@H]2[C@@H]([C@H](OC(C)=O)C[C@@H]3C[C@H](O)CC[C@@]32C)[C@@H]2CC[C@H]([C@H](C)CCCNCCCCCCNc3ccnc4cc(Cl)ccc34)[C@@]12C [Compound 19] | 60/56/50 | 60/56/50 | 60/56/50 | – |
| CC(=O)O[C@@H]1CC[C@@]2(C)[C@@H](C1)C[C@@H](OC(C)=O)[C@@H]1[C@@H]2C[C@H](OC(C)=O)[C@]2(C)[C@@H]([C@H](C)CCCN(C)CCNc3ccnc4cc(Cl)ccc34)CC[C@@H]12 [Compound 20, N-Methyl-N-(3α,7α,12α-triacetoxy-5β-cholan-24-yl)-N′-(7′-chloroquinolin-4′-yl)ethane-1,2-diamine] | 98/242/79 | 98/242/79 | 98/242/79 | – |
| CC(=O)O[C@@H]1CC[C@@]2(C)[C@@H](C1)C[C@@H](OC(C)=O)[C@@H]1[C@@H]2C[C@H](OC(C)=O)[C@]2(C)[C@@H]([C@H](C)CCCN(C)CCCNc3ccnc4cc(Cl)ccc34)CC[C@@H]12 [Compound 21] | 134/229/71 | 134/229/71 | 134/229/71 | – |
| CC(=O)O[C@H]1C[C@H]2[C@@H]([C@H](OC(C)=O)C[C@@H]3CC(=O)CC[C@@]32C)[C@@H]2CC[C@H]([C@H](C)CCCNCCNc3ccnc4cc(Cl)ccc34)[C@@]12C [Compound 22, N-(3-Oxo-7α,12α-diacetoxy-5β-cholan-24-yl)-N′-(7′-chloroquinolin-4′-yl)ethane-1,2-diamine] | 299/571/109 | 299/571/109 | 299/571/109 | – |
| CC(=O)O[C@H]1C[C@H]2[C@@H]([C@H](OC(C)=O)C[C@@H]3CC(=O)CC[C@@]32C)[C@@H]2CC[C@H]([C@H](C)CCCNCCCNc3ccnc4cc(Cl)ccc34)[C@@]12C [Compound 23] | 161/182/121 | 161/182/121 | 161/182/121 | – |
| CC(=O)O[C@H]1C[C@H]2[C@@H]([C@H](OC(C)=O)C[C@@H]3CC(=O)CC[C@@]32C)[C@@H]2CC[C@H]([C@H](C)CCCNCCCCNc3ccnc4cc(Cl)ccc34)[C@@]12C [Compound 24] | 7/6/6 | 7/6/6 | 7/6/6 | – |
| CC(=O)O[C@H]1C[C@H]2[C@@H]([C@H](OC(C)=O)C[C@@H]3CC(=O)CC[C@@]32C)[C@@H]2CC[C@H]([C@H](C)CCCNCCCCCCNc3ccnc4cc(Cl)ccc34)[C@@]12C [Compound 25] | 30/27/25 | 30/27/25 | 30/27/25 | – |
| CC(=O)N[C@@H]1CC[C@@]2(C)[C@@H](C1)C[C@@H](OC(C)=O)[C@@H]1[C@@H]2C[C@H](OC(C)=O)[C@]2(C)[C@@H]([C@H](C)CCCNCCNc3ccnc4cc(Cl)ccc34)CC[C@@H]12 [Compound 36, 24-N-[(7-Chloroquinoline-4-yl)amino]ethylamino-3α-acetamido-7α,12α-diacetoxy-5β-cholane] | 126/116/126 | 126/116/126 | 126/116/126 | – |
| CC(=O)N[C@@H]1CC[C@@]2(C)[C@@H](C1)C[C@@H](OC(C)=O)[C@@H]1[C@@H]2C[C@H](OC(C)=O)[C@]2(C)[C@@H]([C@H](C)CCCNCCCNc3ccnc4cc(Cl)ccc34)CC[C@@H]12 [Compound 37] | 55/114/51 | 55/114/51 | 55/114/51 | – |
| CC(=O)O[C@H]1C[C@H]2[C@@H]([C@H](OC(C)=O)C[C@@H]3C[C@H](NS(C)(=O)=O)CC[C@@]32C)[C@@H]2CC[C@H]([C@H](C)CCCNCCNc3ccnc4cc(Cl)ccc34)[C@@]12C [Compound 38] | 131/301/222 | 131/301/222 | 131/301/222 | – |
| CC(=O)O[C@H]1C[C@H]2[C@@H]([C@H](OC(C)=O)C[C@@H]3C[C@H](NS(C)(=O)=O)CC[C@@]32C)[C@@H]2CC[C@H]([C@H](C)CCCNCCCNc3ccnc4cc(Cl)ccc34)[C@@]12C [Compound 39] | 130/119/147 | 130/119/147 | 130/119/147 | – |
| CC(=O)O[C@H]1C[C@H]2[C@@H]([C@H](OC(C)=O)C[C@@H]3C[C@H](NC(=O)OC(C)(C)C)CC[C@@]32C)[C@@H]2CC[C@H]([C@H](C)CCCNCCNc3ccnc4cc(Cl)ccc34)[C@@]12C [Compound 40, 24-N-[(7-Chloroquinoline-4-yl)amino]ethylamino-3α-N′-tert-butylcarbamate-7α,12α-diacetoxy-5β-cholane] | 1743/531/464 | 1743/531/464 | 1743/531/464 | – |
| CC(=O)O[C@H]1C[C@H]2[C@@H]([C@H](OC(C)=O)C[C@@H]3C[C@H](NS(C)(=O)=O)CC[C@@]32C)[C@@H]2CC[C@H]([C@H](C)CCCN(C)CCNc3ccnc4cc(Cl)ccc34)[C@@]12C [Compound 42, 24-N-Methyl-N-[(7-chloroquinoline-4-yl)amino]ethylamino-3α-methanesulfonamide-7α,12α-diacetoxy-5β-cholane] | 1194/2707/2197 | 1194/2707/2197 | 1194/2707/2197 | – |
| CC(=O)O[C@H]1C[C@H]2[C@@H]([C@H](OC(C)=O)C[C@@H]3C[C@H](NC(=O)OC(C)(C)C)CC[C@@]32C)[C@@H]2CC[C@H]([C@H](C)CCCN(C)CCNc3ccnc4cc(Cl)ccc34)[C@@]12C [Compound 44, 24-N-Methyl-N-[(7-chloroquinoline-4-yl)amino]ethylamino-3α-N′-tert-butylcarbamate-7α,12α-diacetoxy-5β-cholane] | 293/264/144 | 293/264/144 | 293/264/144 | – |
| CC(=O)O[C@H]1C[C@H]2[C@@H]([C@H](OC(C)=O)C[C@@H]3C[C@H](N(C)C)CC[C@@]32C)[C@@H]2CC[C@H]([C@H](C)CCCNCCCNc3ccnc4cc(Cl)ccc34)[C@@]12C [Compound 51] | 382/137/156 | 382/137/156 | 382/137/156 | – |
| CC(=O)O[C@H]1C[C@H]2[C@@H]([C@H](OC(C)=O)C[C@@H]3C[C@H](N)CC[C@@]32C)[C@@H]2CC[C@H]([C@H](C)CCCNCCNc3ccnc4cc(Cl)ccc34)[C@@]12C [Compound 52, 24-N-[(7-Chloroquinoline-4-yl)amino]ethylamino-3α-amino-7α,12α-diacetoxy-5β-cholane] | – | – | – | 3.77 µM |
| CC(=O)O[C@H]1C[C@H]2[C@@H]([C@H](OC(C)=O)C[C@@H]3C[C@H](N)CC[C@@]32C)[C@@H]2CC[C@H]([C@H](C)CCCNCCCNc3ccnc4cc(Cl)ccc34)[C@@]12C [Compound 53] | 54/75/43 | 54/75/43 | 54/75/43 | – |
| CC(=O)O[C@H]1C[C@H]2[C@@H]([C@H](OC(C)=O)C[C@@H]3C[C@H](N)CC[C@@]32C)[C@@H]2CC[C@H]([C@H](C)CCCN(C)CCCNc3ccnc4cc(Cl)ccc34)[C@@]12C [Compound 55] | 45/44/50 | 45/44/50 | 45/44/50 | – |
| CC(=O)O[C@H]1C[C@H]2[C@@H]([C@H](OC(C)=O)C[C@@H]3C[C@H](N)CC[C@@]32C)[C@@H]2CC[C@H]([C@H](C)CCCN(CCC[C@@H](C)[C@H]3CC[C@H]4[C@@H]5[C@H](OC(C)=O)C[C@@H]6C[C@H](N)CC[C@]6(C)[C@H]5C[C@H](OC(C)=O)[C@]34C)CCNc3ccnc4cc(Cl)ccc34)[C@@]12C [Compound 60, N,N-Di(3α-amino-7α,12α-diacetoxy-5β-cholan-24-yl)-N′-(7′-chloroquinoline-4′-yl)-1,3-ethanediamine] | 21/19/19 | 21/19/19 | 21/19/19 | – |
